The source made the active and inactive calls. No cut-off for these calls is given here.
Experiments:
[1] = Cytotoxicity against MDCK cells after 3 days by WST-8 assay; assay type: cell-based, Canis lupus familiaris; conditions: dog
[2] = system: Influenza A virus; assay type: functional, organism-based; conditions: A/WSN/1933(H1N1), MDCK, 72 h
[3] = system: Influenza B virus; assay: Antiviral activity against Influenza B virus (B/Maryland/1/59) infected in BALB/C mouse assessed as mouse survival at 10 mg/kg, iv administered once daily relative to control; assay type: functional
[4] = system: Influenza A virus H3N2; assay type: functional, organism-based; conditions: A/Hong Kong/8/68, MDCK, 72 h
[5] = system: Influenza B virus; assay: Antiviral activity against Influenza B virus (B/Maryland/1/59) infected in BALB/C mouse assessed as increase in mouse survival at 0.08 to 2 mg/kg, iv administered once daily; assay type: functional, organism-based
[6] = system: Influenza B virus; assay: Antiviral activity against Influenza B virus (B/Hong Kong/05/72) infected in MDCK cells assessed as reduction in virus-induced cytopathic effect incubated for 72 hrs by WST assay; assay type: functional, organism-based; conditions: B/Hong Kong/05/1972, MDCK
[7] = In vivo total clearance in Sprague-Dawley rat at 0.5 mg/kg, iv administered as single dose after 2 to 360 mins by LC/MS/MS analysis; assay type: ADME, organism-based
[8] = system: Influenza B virus; assay: Antiviral activity against Influenza B virus (B/Maryland/1/59) infected in iv dosed BALB/C mouse administered once daily; assay type: functional
[9] = Metabolic stability in Crj:CD(SD) rat liver microsomes assessed as compound remaining at 2 uM incubated for 30 mins by LC/MS/MS analysis; assay type: ADME, Microsome; conditions: read-out: Stability
[10] = molecular target: Polymerase acidic protein (Influenza A virus (A/Puerto Rico/8/1934(H1N1)), UniProt P03433); assay: Inhibition of Influenza A virus (A/WSN/1933(H1N1)) CEN using m7G[5']-ppp-[5'] [m2'-O]GAA UAU(-Cy3) GCAUCACUAGUAAGCUUUGCUCUA(-BHQ2)-3' as substrate measured after 60 mins by fluorescence assay
[11] = system: Influenza B virus; assay: Antiviral activity against Influenza B virus (B/Maryland/1/59) infected in MDCK cells assessed as reduction in virus-induced cytopathic effect incubated for 72 hrs by WST assay; assay type: functional, organism-based
[12] = system: Influenza A virus H3N2; assay type: functional, organism-based; conditions: A/Victoria/3/1975(H3N2), MDCK, 72 h
[13] = system: Influenza A virus; assay type: functional, organism-based; conditions: A/Puerto Rico/8/1934(H1N1), MDCK, 72 h
[14] = Protein binding in rat serum assessed as unbound fraction after 24 hrs by LC-MS based equilibrium dialysis analysis; assay type: ADME, cell-free
[15] = system: Influenza A virus; assay: microbe, parasite or virus in culture
Description: Antiviral activity against Influenza A virus

[16] = molecular target: Polymerase acidic protein (Influenza A virus (A/Puerto Rico/8/1934(H1N1)), UniProt P03433); assay: Inhibition of Influenza A virus CEN
[17] = system: Influenza A virus; assay type: functional, organism-based; conditions: MDCK

For `CC(C)N1CN(C(c2ccccc2)c2ccccc2)n2ccc(=O)c(O)c2C1=O`, the CC50 at 72 h [1] was > 25 µM, the EC50 [2] was 81.6 nM and the survival at 10 mg/kg [3] was 100%. For the same compound, the EC50 [4] was 302 nM, the Activity [5] was “inactive” and the EC50 [6] was 124 nM. For the same compound, the clearance [7] was 10.9 mL/min/kg, the Activity [8] was “Dose-dependent effect” and the ED50 [8] was 0.89 mg/kg/day. The remaining at 0.5 h, 2 µM [9] was 86%, the IC50 [10] was 286 nM and the EC50 [11] was 176 nM. For the same compound, the EC50 [12] was 829 nM, the EC50 [13] was 183 nM and the fraction unbound at 24 h [14] was 0.0377.

In the case of `CCOC(=O)c1cn2c(c(O)c1=O)C(=O)N(CCOC)C[C@@H]2C(c1ccccc1)c1ccccc1`, the EC50 [2] is reported as 2530 nM and the IC50 [10] is reported as 298 nM.

Compound `O=C(NCCc1ccc(O)c(O)c1)c1cc2cc(O)c(O)cc2[nH]1` has an EC50 [15] of 16 µM and an IC50 [16] of 940 nM.

Compound `O=C1c2c(O)c(=O)ccn2N(C(c2ccccc2)c2ccccc2)CN1Cc1ccco1` has an EC50 [2] of 478 nM, a clearance [7] of 42.6 mL/min/kg and a remaining at 0.5 h, 2 µM [9] of 50.6%. The IC50 [10] was 588 nM and the fraction unbound at 24 h [14] was 0.0217.

Work on `COCCN1CCn2cc(C(=O)O)c(=O)c(O)c2C1=O` yielded an IC50 [10] of 68600 nM.

With `COCCN1C[C@H](C(C)C)n2cc(C(=O)O)c(=O)c(O)c2C1=O` the IC50 [10] was 2990 nM.

Work on `CN1C[C@H](C(c2ccccc2)c2ccccc2)n2ccc(=O)c(O)c2C1=O` yielded an EC50 [2] of 144 nM, a clearance [7] of 31.6 mL/min/kg and a remaining at 0.5 h, 2 µM [9] of 79.9%. The IC50 [10] was 80.4 nM and the fraction unbound at 24 h [14] was 0.285.

Work on `CNC(=O)c1cn2c(c(O)c1=O)C(=O)N(CCOC)C[C@@H]2C(c1ccccc1)c1ccccc1` yielded an EC50 [2] of 7110 nM and an IC50 [10] of 1590 nM.

Compound `COCCN1CN(C(c2ccccc2)c2ccccc2)n2cc(C(=O)O)c(=O)c(O)c2C1=O` has an EC50 [2] of 1470 nM and an IC50 [10] of 116 nM.

`COCCN1C[C@H](C(c2ccccc2)c2ccccc2)n2cc(OC)c(=O)c(O)c2C1=O` gave an EC50 [2] of 1680 nM and an IC50 [10] of 110 nM.

For `COCCN1C[C@H](C(c2ccccc2)c2ccccc2)n2cc(C)c(=O)c(O)c2C1=O`, the EC50 [2] was 2470 nM and the IC50 [10] was 281 nM.

Work on `COCCN1C[C@H](CCc2ccccc2)n2cc(C(=O)O)c(=O)c(O)c2C1=O` yielded an IC50 [10] of 1350 nM.

With `COCCN1C[C@@H](Cc2ccccc2)n2cc(C(=O)O)c(=O)c(O)c2C1=O` the EC50 [2] was > 50000 nM and the IC50 [10] was 27400 nM.

In the case of `O=c1oc2ccc(-c3ccc(F)cc3)cc2cc1O`, the IC50 [16] is reported as 500 nM.

Work on `CC(C)N1C[C@H](C(c2ccccc2)c2ccccc2)n2ccc(=O)c(O)c2C1=O` yielded an EC50 [2] of 57.5 nM, an EC50 [4] of 232 nM and an EC50 [6] of 100 nM. For the same compound, the clearance [7] was 25.3 mL/min/kg, the remaining at 0.5 h, 2 µM [9] was 78.7% and the IC50 [10] was 239 nM. For the same compound, the EC50 [11] was 177 nM, the EC50 [12] was 488 nM and the EC50 [13] was 194 nM. For the same compound, the fraction unbound at 24 h [14] was 0.182.

Compound `CN1CN(C(c2ccccc2)c2ccccc2)n2ccc(=O)c(O)c2C1=O` has an EC50 [2] of 81.6 nM, a clearance [7] of 18.8 mL/min/kg and a remaining at 0.5 h, 2 µM [9] of 92.1%. For the same compound, the IC50 [10] was 164 nM and the fraction unbound at 24 h [14] was 0.07.

In the case of `O=C(O)/C(O)=C/C(=O)C1(Cc2ccc(Cl)cc2)CCN(Cc2ccccc2)CC1`, the EC50 [2] is reported as 38300 nM.

With `COCCN1C[C@H](C(c2ccccc2)c2ccccc2)n2ccc(=O)c(O)c2C1=O` the EC50 [2] was 134 nM, the clearance [7] was 42.2 mL/min/kg and the remaining at 0.5 h, 2 µM [9] was 79.7%. It also gave an IC50 [10] of 115 nM and a fraction unbound at 24 h [14] of 0.297.

`O=C1N/C(=N\N=C2\C(=O)Nc3ccccc32)S/C1=C1\C(=O)Nc2ccccc21` gave an EC50 [17] of 800 nM.

`COCCN1CN(C(c2ccccc2)c2ccccc2)n2ccc(=O)c(O)c2C1=O` gave an EC50 [2] of 75.2 nM, a clearance [7] of 47.4 mL/min/kg and a remaining at 0.5 h, 2 µM [9] of 83.4%. For the same compound, the IC50 [10] was 103 nM and the fraction unbound at 24 h [14] was 0.129.

`O=c1[nH]c(-c2ccc(F)cc2)c(-c2ccc(-c3nnn[nH]3)cc2)cc1O` gave an EC50 [15] of 11.4 µM.

With `COCCN1CN(Cc2ccc(F)cc2)n2cc(C(=O)O)c(=O)c(O)c2C1=O` the EC50 [2] was > 25000 nM and the IC50 [10] was 419 nM.

For `O=C(O)c1cn(CC2(n3ccc4cccnc43)CCCC2)cc(O)c1=O`, the EC50 [15] was 0.201 µM and the IC50 [16] was 5 nM.

In the case of `COCCN1C[C@H](Cc2ccccc2)n2cc(C(=O)O)c(=O)c(O)c2C1=O`, the EC50 [2] is reported as > 50000 nM and the IC50 [10] is reported as 241 nM.

With `COCCN1C[C@H](c2ccccc2)n2cc(C(=O)O)c(=O)c(O)c2C1=O` the EC50 [2] was > 50000 nM and the IC50 [10] was 27800 nM.

For `COCCN1C[C@H](C(c2ccccc2)c2ccccc2)n2cc(C(=O)O)c(=O)c(O)c2C1=O`, the EC50 [2] was 293 nM and the IC50 [10] was 47.8 nM.

`COCCN1C[C@H](C(c2ccccc2)c2ccccc2)n2cc(Cl)c(=O)c(O)c2C1=O` showed an EC50 [2] of 541 nM.

`COCCN1C[C@H](C(c2ccccc2)c2ccccc2)n2cc(N)c(=O)c(O)c2C1=O` gave an EC50 [2] of 3860 nM and an IC50 [10] of 358 nM.

With `COCCN1C[C@H](CC(C)C)n2cc(C(=O)O)c(=O)c(O)c2C1=O` the IC50 [10] was 9310 nM.

— ChEMBL document CHEMBL4334467, “Synthesis and SAR Study of Carbamoyl Pyridone Bicycle Derivatives as Potent Inhibitors of Influenza Cap-dependent Endonuclease” (J Med Chem, 2019)
